pEC50: −log10 of the molar value. Activity calls are given as the source filed them. The rule behind the calls is not given here.
Columns and labels:
[1] = Selectivity index, ratio of ED50 for human KB cells to ED50 for Trypanosoma brucei rhodesiense STIB900 bloodstream trypomastigote forms; assay type: toxicity, cell-based; settings: read-out: Ratio ED50
[2] = test system: Trypanosoma brucei rhodesiense; assay: Antitrypanosomal activity against Trypanosoma brucei rhodesiense STIB900 bloodstream trypomastigote forms measured on day 3 post treatment by alamar blue assay; assay type: functional; settings: STIB900, 72 h, read-out: ED50 (the source's name)
[3] = test system: Leishmania donovani; assay: Antileishmanial activity against Leishmania donovani MHOM/ET/67/HU3 amastigotes infected in CD1 mouse peritoneal macrophages after 5 days; assay type: functional; settings: for pEC50: MHOM/ET/67/HU3, 120 h, read-out: ED50 (the source's name)
[4] = test system: Trypanosoma cruzi; assay: Antitrypanosomal activity against Trypanosoma cruzi MHOM/BR/OO/Y trypomastigotes infected in CD1 mouse peritoneal macrophages after 3 days; assay type: functional; settings: 72 h, read-out: ED50 (the source's name)
[5] = Cytotoxicity against human KB cells after 3 days by fluorometric assay; assay type: toxicity, cell-based; settings: read-out: ED50
[6] = organism: Mus musculus; assay: Cytotoxicity against CD1 mouse peritoneal macrophages assessed as induction of cell membrane lysis at 30 uM by optical microscopic method; assay type: toxicity; settings: peritoneal macrophage
[7] = Drug release from Trypanosoma brucei brucei S247 bloodstream forms cell membrane treated with N-benzyloxy carbonyl-S-(4-bromobenzyl)glutathione dimethyl ester at 50 uM after 120 mins in presence of 1 M NaCl by HPLC-UV method; assay type: ADME; settings: 2 h
[8] = Drug release from Trypanosoma brucei brucei S247 bloodstream forms cell membrane treated with N-benzyloxy carbonyl-S-(4-bromobenzyl)glutathione dimethyl ester at 50 uM after 120 mins in presence of 6 M urea by HPLC-UV method; assay type: ADME, tissue-based; settings: blood, 2 h
[9] = test system: Trypanosoma brucei brucei; assay: Antitrypanosomal activity against Trypanosoma brucei brucei S247 bloodstream forms; assay type: functional; settings: read-out: ED50 (the source's name)
[10] = Drug release from Trypanosoma brucei brucei S247 bloodstream forms cell membrane at 50 uM after 120 mins in presence of 6 M urea by HPLC-UV method; assay type: ADME, tissue-based; settings: blood, 2 h
[11] = test system: Trypanosoma brucei brucei; assay: Antitrypanosomal activity against Trypanosoma brucei brucei S247 bloodstream forms assessed as swelling of parasite head at 50 uM after 5 mins by optical microscopic method; assay type: functional
[12] = test system: Trypanosoma brucei brucei; assay: Antitrypanosomal activity against Trypanosoma brucei brucei S247 bloodstream forms assessed as circular appearance at 50 uM after 30 to 40 mins by optical microscopic method; assay type: functional
[13] = test system: Trypanosoma brucei brucei; assay: Antitrypanosomal activity against Trypanosoma brucei brucei S247 bloodstream forms assessed as swirling motion of cell particles at 50 uM after 1 hr by optical microscopic method; assay type: functional
[14] = test system: Trypanosoma brucei brucei; assay: Antitrypanosomal activity against Trypanosoma brucei brucei S247 bloodstream forms assessed as immobility of parasite at 50 uM up to 1 min by optical microscopic method; assay type: functional
[15] = Drug release fromTrypanosoma brucei brucei S247 bloodstream forms cell membrane at 50 uM after 120 mins in presence of 1 M NaCl by HPLC-UV method; assay type: ADME; settings: trypanosoma brucei brucei, 2 h
[16] = Drug uptake in Trypanosoma brucei brucei S247 bloodstream forms at 50 uM after 5 mins by HPLC-UV method; assay type: ADME

| Compound | pEC50 [2] | pEC50 [3] | pEC50 [4] | selectivity ratio [1] | CC50 at 72 h [5] [µM] | also measured |
| --- | --- | --- | --- | --- | --- | --- |
| CCCCOC(=O)CNC(=O)[C@H](CSc1ccc([N+](=O)[O-])cc1[N+](=O)[O-])NC(=O)CC[C@H](NC(=O)/C=C/c1ccccc1)C(=O)OCCCC | 6.55 | – | < 4.52 | 123 | 34.4 | – |
| CCCCOC(=O)CNC(=O)[C@H](CSc1ccc([N+](=O)[O-])cc1[N+](=O)[O-])NC(=O)CC[C@H](Nc1ccc([N+](=O)[O-])cc1[N+](=O)[O-])C(=O)OCCCC | 6.14 | – | – | > 417 | > 300 | – |
| CCCCOC(=O)CNC(=O)[C@H](CSc1ccc([N+](=O)[O-])cc1[N+](=O)[O-])NC(=O)CC[C@H](NC(=O)OC12CC3CC(CC(C3)C1)C2)C(=O)OCCCC | 6.30 | 5.00 | 5.35 | > 600 | > 300 | – |
| CCCCOC(=O)CNC(=O)[C@H](CSc1ccc([N+](=O)[O-])cc1[N+](=O)[O-])NC(=O)CC[C@H](NC(=O)COc1ccccc1)C(=O)OCCCC | 6.22 | – | < 4.52 | > 500 | > 300 | – |
| CCCCOC(=O)CNC(=O)[C@H](CSc1ccc([N+](=O)[O-])cc1[N+](=O)[O-])NC(=O)CC[C@H](N)C(=O)OCCCC | 5.73 | 4.70 | – | 57.1 | 107 | Activity [6]: Toxic |
| Sodium stibogluconate | – | – | – | – | – | ED50 [3]: 33 µg/mL |
| O=C(Cn1ccnc1[N+](=O)[O-])NCc1ccccc1 [BENZNIDAZOLE] | – | – | 5.36 | – | – | – |
| CCCCOC(=O)CNC(=O)[C@H](CSc1ccc([N+](=O)[O-])cc1[N+](=O)[O-])NC(=O)CC[C@H](NC(=O)OCc1ccccc1)C(=O)OCCCC | 6.38 | < 4.52 | – | 227 | 95.2 | – |
| COC(=O)CNC(=O)[C@H](CSCc1ccc(Br)cc1)NC(=O)CC[C@H](NC(=O)OCc1ccccc1)C(=O)O | – | – | – | – | – | Drug uptake [7]: 24%; Drug uptake [8]: 8% |
| CCCCOC(=O)CNC(=O)[C@H](CSc1ccc([N+](=O)[O-])cc1[N+](=O)[O-])NC(=O)CC[C@H](NC(=O)c1ccccc1)C(=O)OCCCC | 6.26 | – | 4.64 | > 545 | > 300 | – |
| N[C@@H](CCC(=O)N[C@@H](CSc1ccc([N+](=O)[O-])cc1[N+](=O)[O-])C(=O)NCC(=O)O)C(=O)O | < 4.52 | < 4.52 | < 4.52 | – | – | – |
| O=C(O)CNC(=O)[C@H](CSCc1ccc(Br)cc1)NC(=O)CC[C@H](NC(=O)OCc1ccccc1)C(=O)O | – | – | – | – | – | Drug uptake [8]: 12% |
| N=C(N)c1ccc(OCCCCCOc2ccc(C(=N)N)cc2)cc1 | 9.48 | – | – | – | – | – |
| CCCCOC(=O)CNC(=O)[C@H](CSc1ccc([N+](=O)[O-])cc1[N+](=O)[O-])NC(=O)CC[C@H](Nc1nc(N)nc(Cl)n1)C(=O)OCCCC | 4.73 | – | – | > 15.9 | > 300 | – |
| COC(=O)CNC(=O)[C@H](CSCc1ccc(Br)cc1)NC(=O)CC[C@H](NC(=O)OCc1ccccc1)C(=O)OC | – | – | – | – | – | pEC50 [9]: 4.52; Drug uptake [10]: 80%; Activity [11]: Active; Activity [12]: Active; Activity [13]: Active; Activity [14]: Active; Drug uptake [15]: 76%; Drug uptake [16]: Active |

Second part, led by results:

| pEC50 [2] | pEC50 [3] | pEC50 [4] | Compound | selectivity ratio [1] | CC50 at 72 h [5] [µM] | also measured |
| --- | --- | --- | --- | --- | --- | --- |
| 5.69 | < 4.52 | < 4.52 | CCCCOC(=O)CNC(=O)[C@H](CSc1ccc([N+](=O)[O-])cc1[N+](=O)[O-])NC(=O)CC[C@H](NC(=O)CCc1ccccc1)C(=O)OCCCC | > 148 | > 300 | – |
| 6.66 | 5.00 | 4.78 | CCCCOC(=O)CNC(=O)[C@H](CSc1ccc([N+](=O)[O-])cc1[N+](=O)[O-])NC(=O)CC[C@H](NC(=O)OC(C)(C)C)C(=O)OCCCC | 320 | 70.4 | – |
| 4.49 | – | < 4.52 | CCCCCCCCCCCCCC(=O)N[C@@H](CCC(=O)N[C@@H](CSc1ccc([N+](=O)[O-])cc1[N+](=O)[O-])C(=O)NCC(=O)OCCCC)C(=O)OCCCC | > 9.2 | > 300 | – |
| 5.99 | – | – | CCCCOC(=O)CNC(=O)[C@H](CSc1ccc([N+](=O)[O-])cc1[N+](=O)[O-])NC(=O)CC[C@H](NC(=O)CCC(C)C)C(=O)OCCCC | 82.3 | 84 | – |
| 5.67 | < 4.52 | 4.52 | CCCCOC(=O)CNC(=O)[C@H](CSc1ccc([N+](=O)[O-])cc1[N+](=O)[O-])NC(=O)CC[C@H](NC(=O)OC)C(=O)OCCCC | > 139 | > 300 | – |
| 6.14 | – | 4.51 | CCCCOC(=O)CNC(=O)[C@H](CSc1ccc([N+](=O)[O-])cc1[N+](=O)[O-])NC(=O)CC[C@H](NC(=O)C(C)C)C(=O)OCCCC | > 411 | > 300 | – |
| 6.22 | – | 5.08 | CCCCOC(=O)CNC(=O)[C@H](CSc1ccc([N+](=O)[O-])cc1[N+](=O)[O-])NC(=O)CC[C@H](NC(=O)C(C)(C)C)C(=O)OCCCC | 139 | 83.4 | – |
| 6.52 | – | 4.46 | CCCCOC(=O)CNC(=O)[C@H](CSc1ccc([N+](=O)[O-])cc1[N+](=O)[O-])NC(=O)CC[C@H](NC(=O)CCc1c[nH]c2ccccc12)C(=O)OCCCC | 87 | 26 | – |
| 5.19 | – | 4.42 | CCCCOC(=O)CNC(=O)[C@H](CSc1ccc([N+](=O)[O-])cc1[N+](=O)[O-])NC(=O)CC[C@H](NC(C)=O)C(=O)OCCCC | > 46 | > 300 | – |
| 5.94 | < 4.52 | < 4.52 | CCCCOC(=O)CNC(=O)[C@H](CSc1ccc([N+](=O)[O-])cc1[N+](=O)[O-])NC(=O)CC[C@H](NC(=O)CC(C)C)C(=O)OCCCC | 51.4 | 59.6 | – |
| 5.36 | – | 4.92 | CCCCOC(=O)CNC(=O)[C@H](CSc1ccc([N+](=O)[O-])cc1[N+](=O)[O-])NC(=O)CC[C@H](NC(=O)CC(C)(C)C)C(=O)OCCCC | 57.1 | 250 | – |
